Experiment: Pharmacokinetics test in beagles after oral administration of Compound A (plasma, HPLC-FL method)
Format: in vivo, beagle
Conditions: for AUC(0-inf) / Cmax / half-life: plasma, po, 0.3 mg/kg
Experimental: In this example, after oral administration of Compound A, a pharmacokinetics test was carried out, in accordance with the following procedure. In the test, a time course of changes in concentrations of the unreacted compound and metabolites was measured.
Compound A was suspended in 0.5% methyl cellulose solution, and the suspension was orally administered to 10 male beagles (0.3 mg/kg). Blood was collected from each subject after 0.25, 0.5, 1.0, 2.0, 4.0, and 8.0 hours from the administration. Plasma was extracted by liquid-liquid extraction, and then, a time course of changes in concentrations of the unreacted compound and metabolites in plasma was measured according to a simultaneous measurement method (hereinafter referred to as HPLC-FL method) using HPLC and a fluorescence detector.
Conditions in the HPLC-FL method measuring Compound A and metabolites simultaneously are shown in Table 9, and concentration gradients of mobile phases are shown in Table 10.
The beagles for the pharmacokinetics test used in this example were previously selected by carrying out a phenotype analysis. In the pharmacokinetics test, 5 dogs (type I) in which the major metabolite was MM-2, and 5 dogs (type II) in which the major metabolites were MM-1 and MM-5, were used. The time course of changes in concentrations of Compound A and metabolites thereof in plasma are shown in Table 1 (type I) and Table 2 (type II)
As pharmacokinetic parameters, time of maximum observed concentration (Tmax), concentration corresponding to Tmax (Cmax), area under the plasma concentration-time curve from the time of dosing extrapolated to infinity (AUCinf), and terminal half-life (T1/2) were calculated.

[1] = male, beagle, dog, type I (EM) beagles, n = 5, plasma after oral Compound A 0.3 mg/kg
[2] = male, beagle, dog, type II (PM) beagles, n = 5, plasma after oral Compound A 0.3 mg/kg
[3] = unreacted compound in plasma, oral 0.3 mg/kg, type II (PM) vs type I (EM) beagles

CCn1c(=O)nc(C2CCCCC2)c2ccc(C)nc21 [Compound A, 4-cyclohexyl-1-ethyl-7-methylpyrido[2,3-d]pyrimidin-2(1H)-one]
AUC(0-inf) [1]: 2.8 ± 1.6 ng·h/mL
Cmax [1]: 3.2 ± 1.5 ng/mL
half-life [1]: 36 ± 12 min
AUC(0-inf) [2]: 27.2 ± 20.2 ng·h/mL
Cmax [2]: 24 ± 14.8 ng/mL
half-life [2]: 48 ± 24 min
Tmax [1]: 18 min
AUCinf of type II relative to type I [3]: 9.7 times
Cmax of type II relative to type I [3]: 7.5 times

— patent publication US7399587B2, “Canine CYP1A2 genetic polymorphism” (Astellas Pharma Inc., priority 2003, dated 2008)
